The source of these data is article PMC5933338 (Drug Design, Development and Therapy, 2018).

The structures appear in SMILES notation.

The target of the assay is wild type (WT) A/M2 protein (Influenza A virus, UniProt P0DOF5). Briefly: cell-based.
wild type (WT) A/M2 protein, sequence (P0DOF5 whole entry, looked up): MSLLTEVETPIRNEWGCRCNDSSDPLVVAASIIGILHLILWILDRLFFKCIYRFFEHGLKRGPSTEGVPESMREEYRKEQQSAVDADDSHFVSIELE

As to `CCCCNC(C)C12CC3CC(CC(C3)C1)C2` (centres unmarked) [Compound 5a, (1-Adamantan-1-yl-ethyl)-butyl-amine], where the note is “100 µM, 5a versus rimantadine dimer 4c”, the “M2 WT inhibitory activity relative to that of 4c” value is on record as “approximately fourfold”. Besides, for the setting “read-out: percentage inhibition of A/M2 current (WT)”, the inhibition at 100 µM turned out to be 40%.
